Reference: article PMC5078989, “Targeted inhibition of the COP9 signalosome for treatment of cancer” (Nature Communications, 2016)

System: panel of cancer cell lines
Experiment: Cell viability (CellTiter-Glo) dose-response across cancer cell line panel;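 as to EC50: after 72 h compound incubation with CellTiter-Glo ATP readout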
Assay type: cell-based, human
Details: for EC50: Homo sapiens
From the text: Next, we explored the effect of CSN5 inhibition on the viability of cancer cells. To obtain a comprehensive picture, we generated dose–response curves with a CSN5 inhibitor across more than 500 cancer cell lines in a previously described standardized setting[47] (Supplementary Data 1).
A standardized CellTiter-Glo Assay (Promega #G7570) based on the quantification of ATP was applied according to the manufacturer's protocol to measure the amount of viable cells in culture. In brief, cells were seeded into 384-well plates at optimal density for each cell line. After 4 h, compounds were added at different concentrations in growth medium and incubated for another 72 h in a humidifying chamber at 37 °C and 5% CO2. […] EC50 values were calculated from the plot of percentage of inhibition versus inhibitor concentration using the nonlinear regression analysis software Origin 7.5SR6 (OriginLab Corp.).

`CC(C)C[C@H](NC(=O)[C@H](Cc1ccccc1)NC(=O)c1cnccn1)B(O)O` [Bortezomib] gave an EC50 (SR-786, SR-786) of 2.21 nM, an EC50 (ST486, ST486) of 6.31 nM and an EC50 (SU-DHL10, SU-DHL-10) of 14.5 nM. The EC50 (SU-DHL-4, SU-DHL-4) was 3.28 nM, the EC50 (SU-DHL-8, SU-DHL-8) was 3.8 nM and the EC50 (SUM52, cell line SUM-52) was 5.48 nM. It also gave an EC50 (SUM52PE) of 6.21 nM, an EC50 (SUP-M2, SUP-M2) of 3.28 nM and an EC50 (SW480, SW480) of 7.08 nM. It also gave an EC50 (SW837, SW837) of 5.87 nM, an EC50 (SW948, SW948) of 7.28 nM and an EC50 (SW1088, SW 1088) of 5.94 nM. It also gave an EC50 (SW1271, cell line SW 1271) of 21.5 nM, an EC50 (SW1353, SW 1353) of 39.3 nM and an EC50 (SW1417, SW1417) of 6.52 nM. It also gave an EC50 (SW1573, SW 1573) of 20.5 nM, an EC50 (SW1783, SW 1783) of 16.4 nM and an EC50 (SW1990, SW 1990) of 8.71 nM. It also gave an EC50 (SW-620, SW620) of 7.95 nM, an EC50 (T47D, T-47D) of 10.4 nM and an EC50 (T84, T84) of 12.1 nM. It also gave an EC50 (T98G) of 9.62 nM, an EC50 (T-24, T24) of 9.77 nM and an EC50 (TC-71, TC-71) of 11.4 nM. For the same compound, the EC50 (TE-4) was 5.89 nM, the EC50 (TE-6, TE-6) was 43.9 nM and the EC50 (TE-10, TE-10) was 11.2 nM. The EC50 (TE-11, cell line TE-11) was 28.9 nM, the EC50 (TE-15, cell line TE-15) was 16.7 nM and the EC50 (TEN) was 9.94 nM. For the same compound, the EC50 (TF-1, TF-1) was 1.67 nM, the EC50 (THP-1, THP-1) was 6.6 nM and the EC50 (TOV21G, cell line TOV-21G) was 4.25 nM. It also gave an EC50 (TOV112D, TOV-112D) of 28.7 nM, an EC50 (TT2609-C02) of 19.3 nM and an EC50 (U266B1) of 3.37 nM. It also gave an EC50 (U-118-MG, U-118 MG) of 7.81 nM, an EC50 (U-251, U-251 MG) of 6.91 nM and an EC50 (U-937, U-937) of 5.81 nM. For the same compound, the EC50 (UACC-62, UACC-62) was 19.5 nM, the EC50 (UACC-257, UACC-257) was 10.9 nM and the EC50 (UMUC3, UM-UC-3) was 15.1 nM. For the same compound, the EC50 (VM-CUB-1, VM-CUB1) was 10.1 nM, the EC50 (VMRC-RCW) was 5.3 nM and the EC50 (WM 266-4, WM-266-4) was 24.4 nM. The EC50 (WM793, WM-793) was 15.5 nM, the EC50 (WM983B, WM-983B) was 8.77 nM and the EC50 (WM-88) was 7.78 nM. The EC50 (WM-115, WM-115) was 6.28 nM, the EC50 (WM-1799, WM1799) was 7.42 nM and the EC50 (WSUDLCL2, WSU-DLCL2) was 4.13 nM. For the same compound, the EC50 (YAPC) was 22.7 nM, the EC50 (YKG-1, YKG1) was 7.27 nM and the EC50 (YMB-1) was 16.2 nM. It also gave an EC50 (Z-138, cell line Z-138) of 5.73 nM, an EC50 (ZR-75-1, ZR-75-1) of 21.1 nM and an EC50 (ZR-75-30, ZR-75-30) of 10.2 nM. The EC50 (cell line AGS) was 9.36 nM, the EC50 (cell line BDCM) was 7.98 nM and the EC50 (cell line EB1) was 6.47 nM. It also gave an EC50 (cell line EB2) of 6.46 nM, an EC50 (cell line GCT) of 19 nM and an EC50 (cell line GI-1) of 8.94 nM. For the same compound, the EC50 (cell line H4) was 11.5 nM, the EC50 (cell line HH) was 3.05 nM and the EC50 (cell line HuG1-N) was 1.83 nM. For the same compound, the EC50 (cell line JHH-5) was 17 nM, the EC50 (cell line KS-1) was 10.1 nM and the EC50 (cell line KURAMOCHI) was 30.9 nM. For the same compound, the EC50 (cell line LC-1/sq-SF) was 18.8 nM, the EC50 (cell line LP-6) was 10.3 nM and the EC50 (cell line MEL-HO) was 5.3 nM. It also gave an EC50 (cell line MJ) of 2.8 nM, an EC50 (cell line MOG-G-UVW) of 19.9 nM and an EC50 (cell line Mel285) of 8.2 nM. The EC50 (cell line NCI-H2330) was 32.2 nM, the EC50 (cell line OMM2.3) was 12.1 nM and the EC50 (cell line OMM2.5) was 21.7 nM. It also gave an EC50 (cell line PC-3) of 14.3 nM, an EC50 (cell line RERF-LC-MS) of 41.7 nM and an EC50 (cell line RKO) of 8.53 nM. The EC50 (cell line RL) was 3.25 nM, the EC50 (cell line T778) was 18.6 nM and the EC50 (cell line TE 617.T) was 6.87 nM. For the same compound, the EC50 (cell line TE-1) was 15.6 nM, the EC50 (cell line TE-5) was 7.97 nM and the EC50 (cell line VMRC-RCZ) was 8.46 nM. For the same compound, the EC50 (cell line WS1) was 17.6 nM, the AMAX (Hs 611.T) was -95.5359 and the AMAX (Hs 729) was -96.5684. The AMAX (Hs 936.T) was -95.7878, the AMAX (Hs 940.T) was -97.1382 and the AMAX (IGR-1) was -97.3166. The AMAX (JHOM-1) was -95.2005, the AMAX (JVM-3) was -96.4391 and the AMAX (KARPAS-620) was -98.4285. For the same compound, the AMAX (KCL-22) was -97.2427, the AMAX (KHM-1B) was -96.7668 and the AMAX (KLE) was -91.799. It also gave an AMAX (KMS-28BM) of -96.7467, an AMAX (KO52) of -96.777 and an AMAX (KU812) of -97.0553. The AMAX (KYM-1) was -96.8984, the AMAX (KYO-1) was -96.2465 and the AMAX (Ki-JK) was -96.7338. For the same compound, the AMAX (L-363) was -96.7867, the AMAX (LAMA-84) was -97.7452 and the AMAX (LCLC-97TM1) was -96.2648. The AMAX (LCLC-103H) was -95.0382, the AMAX (LMSU) was -95.8427 and the AMAX (LU99) was -96.2849. The AMAX (LXF-289) was -97.2241, the AMAX (Li-7) was -96.9283 and the AMAX (MB 157) was -95.9545. It also gave an AMAX (MHH-NB-11) of -96.8993, an AMAX (MOLM-16) of -96.6028 and an AMAX (MOLP-8) of -96.4824. The AMAX (MONO-MAC-1) was -98.0152, the AMAX (MONO-MAC-6) was -96.8971 and the AMAX (NCI-H28) was -96.1421. For the same compound, the AMAX (NCI-H841) was -95.8407, the AMAX (NCI-H1184) was -95.7721 and the AMAX (NCI-H1341) was -97.2357. For the same compound, the AMAX (NCI-H1869) was -96.9482, the AMAX (NCI-H2073) was -96.9774 and the AMAX (NOMO-1) was -95.3675. For the same compound, the AMAX (OC 316) was -96.5256, the AMAX (OCI-AML2) was -96.7921 and the AMAX (OCI-AML3) was -95.7952. It also gave an AMAX (OCI-AML5) of -97.923, an AMAX (OCI-M1) of -95.2925 and an AMAX (ONCO-DG-1) of -96.4992. For the same compound, the AMAX (OS-RC-2) was -96.3701, the AMAX (OUMS-23) was -95.8674 and the AMAX (OV7) was -92.7444. It also gave an AMAX (P31/FUJ) of -96.7178, an AMAX (PA-TU-8988S) of -97.262 and an AMAX (PE/CA-PJ41 (clone D2)) of -95.4895. The AMAX (RI-1) was -96.2187, the AMAX (RMUG-S) was -96.7615 and the AMAX (RVH-421) was -95.9743. The AMAX (SF126) was -95.9565, the AMAX (SK-N-SH) was -96.5195 and the AMAX (SNU-216) was -96.337. For the same compound, the AMAX (SW620) was -96.6127, the AMAX (SW837) was -95.7546 and the AMAX (SW948) was -95.7047. It also gave an AMAX (SW 1783) of -94.9618, an AMAX (T84) of -98.3103 and an AMAX (T98G) of -96.5841. It also gave an AMAX (T-47D) of -97.6577, an AMAX (THP-1) of -96.3023 and an AMAX (U-118 MG) of -95.817. For the same compound, the AMAX (UACC-257) was -95.0265, the AMAX (VMRC-RCW) was -96.9199 and the AMAX (YMB-1) was -91.0668. For the same compound, the “Amax (high-concentration effect level)” value (across all cell lines of the panel, 72 h) was −95% to −100 and the AMAX (all cell lines of a selection from the panel (Fig. 3b)) was at most −95%.
